Values after ≈ are worked out from the molar mass of the structure shown. Read-outs that look alike come from different tables or passages of the source.
Tests used:
[1] = system: Escherichia coli MC4100 harboring the IMP4213 (E. coli IMP); experiment: microbe, parasite or virus in culture; format: cell-based; conditions: Escherichia coli, 22 h, read-out: MIC (μg/mL) E. coli IMP, E. coli MC4100 IMP4213, increased outer-membrane permeability; 35° C., 22 hours
Outline: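 Ten 2-fold dilutions, from 4 μg/mL or from 0.5 μg/mL depending on protocol, are challenged with bacteria at OD600 0.0005 in Tween-80-supplemented cation-adjusted Mueller Hinton Broth. Plates incubate 22 hours at 35° C per CLSI. The E. coli IMP4213 strain has increased outer-membrane permeability.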

[2] = molecular target: T1, SpsB (Staphylococcus aureus signal peptidase) (Staphylococcus aureus, UniProt P0A070); experiment: cell-based; format: biochemical; conditions: SpsB IC50, whole-cell S. aureus (USA300 background, overexpressing SpsB) as SpsB source; fluorogenic peptide substrate, kinetic read 30 min
T1 construct: This assay uses a suspension of Staphylococcus aureus cells as a source of SpsB instead of recombinant SpsB protein; endogenous in cells; host or cells: S. aureus, USA300 background, overexpressing SpsB (whole-cell suspension from frozen pellets)
Procedure: A kinetic fluorogenic enzyme activity assay was used to assess inhibition of SpsB (Staphylococcus aureus signal peptidase) activity and IC50s were determined. This assay uses a suspension of Staphylococcus aureus cells as a source of SpsB instead of recombinant SpsB protein.
Cell preparation: Luria broth (LB) was inoculated with S. aureus (USA300 background, overexpressing SpsB) and shaken at 37° C. until an OD600 nm of 1.5-2.0 was reached (˜4 hr). The culture was then diluted to an OD600 nm of 1.0 with LB, aliquoted and centrifuged at 10,000×g for 2 mins. The supernatant was removed and the pellet was resuspended in phosphate buffer (1×PBS, 12.5 mg/L MgCl2, 25 mg/L CaCl2, 0.1% Tween-80) to an OD600 nm of 0.5, then centrifuged again at 10,000x g for 2 mins. The supernatant was removed and the pellets were frozen at −20° C.
Test compounds were prepared in DMSO at a concentration of 10 mg/mL. These compound stocks were diluted into DMSO to a concentration of 25 μg/mL and serial 3-fold dilutions were made in DMSO, for a total of 11 compound concentrations. 20 nL of each compound solution was pre-spotted into a white 384-well plate (50 μL/well polypropylene, Nunc) using acoustic fluid transfer (Echo).
Frozen S. aureus pellets were resuspended in assay buffer (1x PBS, 12.5 mg/L MgCl2, 25 mg/L CaCl2, 0.1% Tween-80) to an OD600 nm of 0.05, then mixed 1:1 (v/v) with 20 μM substrate ((Dabcyl)βAla-KPAKAAE(Edans)) in assay buffer, and this solution was added (20 μL/well) to the 384-well plate that had been pre-spotted with compound. Fluorescence intensity was then immediately read kinetically for 30 minutes with 2 minute read intervals to monitor cleavage of the internally quenched peptide substrate (excitation wavelength=340 nm, emission wavelength=490 nm, Molecular Devices Spectramax M5). Reaction rate (slope) was plotted against inhibitor concentration to derive the IC50.

[3] = system: Methicillin Resistant Staphylococcus aureus strain USA 300, NRS384; experiment: Minimum inhibitory concentration, broth micro-dilution (CLSI), S. aureus; format: cell-based; conditions: Staphylococcus aureus, MRSA / NRS 384 / USA300, 22 h, 35° C., 22 hours
Outline: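 Colonies grown 20 hours at 35° C were suspended in cation-adjusted Mueller Hinton Broth with 0.002% Tween-80. Cells were then added to 2-fold compound dilutions starting at 4 or 0.5 μg/mL, at OD600 0.0005.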

[4] = system: Escherichia coli ATCC 25922; experiment: Minimum inhibitory concentration, broth micro-dilution (CLSI), E. coli; format: cell-based; conditions: Escherichia coli, ATCC25922, 22 h, 35° C., 22 hours
[5] = MRSA USA 300 NRS384, read-out: MIC (μg/mL) S. aureus
[6] = E. coli ATCC 25922, read-out: MIC (μg/mL) E. coli
[7] = read-out: MIC (μg/mL) S. aureus, MRSA USA 300 NRS384
[8] = read-out: MIC (μg/mL) E. coli, E. coli ATCC 25922

T1 sequence (P0A070 whole entry): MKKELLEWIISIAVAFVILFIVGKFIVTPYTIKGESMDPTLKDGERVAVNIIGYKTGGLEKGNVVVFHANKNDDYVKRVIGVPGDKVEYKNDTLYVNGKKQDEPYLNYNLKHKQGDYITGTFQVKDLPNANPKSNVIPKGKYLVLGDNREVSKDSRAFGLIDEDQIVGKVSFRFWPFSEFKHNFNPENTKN

Row | Structure (SMILES) | MIC [1] [µg/mL] | IC50 [2] [nM] | MIC [3, 5] [µg/mL] | MIC [4, 6] [µg/mL] | MIC [3, 7] [µg/mL] | MIC [4, 8] [µg/mL]
1 | CCCCCCCCCCNCCC(=O)N(C)[C@@H]1C(=O)N[C@@H](C)C(=O)N[C@H](C(=O)NCC#N)Cc2ccc(OCCN)c(c2)-c2cc1ccc2OCCN [Compound 131] | 1.8 (≈ 2.4 µM) | 0.74 | 0.047 (≈ 0.0628 µM) | 64 (≈ 85.5 µM) |  | 
2 | CCCCCCCCCCNCC(=O)N(C)[C@@H]1C(=O)N[C@@H](C)C(=O)N[C@H](C(=O)NCC#N)Cc2ccc(OCCN)c(c2)-c2cc1ccc2OCCN [Compound 132] | 3 (≈ 4.08 µM) | 0.71 |  |  | 0.25 (≈ 0.34 µM) | > 64
3 | CCCCCCCCCNCCCC(=O)N(C)[C@@H]1C(=O)N[C@@H](C)C(=O)N[C@H](C(=O)NCC#N)Cc2ccc(OCCN)c(c2)-c2cc1ccc2OCCN [Compound 133] | > 4 | 1.1 | 0.25 (≈ 0.334 µM) | > 64 |  | 
4 | CCCCCCCCNCCCCC(=O)N(C)[C@@H]1C(=O)N[C@@H](C)C(=O)N[C@H](C(=O)NCC#N)Cc2ccc(OCCN)c(c2)-c2cc1ccc2OCCN [Compound 134] | > 4 | 3.5 | 1.5 (≈ 2 µM) | > 64 |  | 
5 | CCCCc1ccc(-c2ccc(C(=O)N[C@@H](CCCCN)C(=O)N(C)[C@@H]3C(=O)N[C@@H](C)C(=O)N[C@H](C(=O)N[C@H](C)C#N)Cc4ccc(OCCN)c(c4)-c4cc3ccc4OCCN)cc2)cc1 [Compound 136] | 0.38 (≈ 0.415 µM) | 10 | 2 (≈ 2.18 µM) | 8 (≈ 8.73 µM) |  | 
6 | CCCCc1ccc(-c2cccc(C(=O)N[C@@H](CCCCN)C(=O)N(C)[C@@H]3C(=O)N[C@@H](C)C(=O)N[C@H](C(=O)NCC#N)Cc4ccc(OCCN)c(c4)-c4cc3ccc4OCCN)c2)cc1 [Compound 137] | 0.063 (≈ 0.0698 µM) | 1.1 | 0.063 (≈ 0.0698 µM) | 4 (≈ 4.43 µM) |  | 
7 | C[C@@H]1NC(=O)[C@@H](N(C)C(=O)[C@H](CCN)NC(=O)c2ccc(-c3ccc4c(c3)CCCC4)cc2)c2ccc(OCCN)c(c2)-c2cc(ccc2OCCN)C[C@@H](C(=O)NCC#N)NC1=O [Compound 138] | 0.055 (≈ 0.0631 µM) | 0.93 |  |  | 0.063 (≈ 0.0722 µM) | 0.25 (≈ 0.287 µM)
8 | C[C@@H]1NC(=O)[C@@H](N(C)C(=O)[C@H](CCN)NC(=O)c2ccc(-c3ccc4c(c3)CCCC4)cc2F)c2ccc(OCCN)c(c2)-c2cc(ccc2OCCN)C[C@@H](C(=O)NCC#N)NC1=O [Compound 139] | 0.012 (≈ 0.0135 µM) | 0.94 |  |  | 0.047 (≈ 0.0528 µM) | 0.25 (≈ 0.281 µM)
9 | C[C@@H]1NC(=O)[C@@H](N(C)C(=O)[C@H](CCN)NC(=O)c2ccc(-c3ccc4c(c3)CCCC4)cc2Cl)c2ccc(OCCN)c(c2)-c2cc(ccc2OCCN)C[C@@H](C(=O)NCC#N)NC1=O [Compound 140] | 0.0078 (≈ 0.0086 µM) | 0.99 |  |  | 0.031 (≈ 0.0342 µM) | 0.13 (≈ 0.143 µM)
10 | CCCCc1ccc(-c2ccc(C(=O)N[C@@H](CCCN)C(=O)N(C)[C@@H]3C(=O)N[C@@H](C)C(=O)N[C@H](C(=O)NCC#N)Cc4ccc(OCCN)c(c4)-c4cc3ccc4OCCN)c(C)c2)cc1 [Compound 142] | 0.042 (≈ 0.0466 µM) | 0.72 | 0.039 (≈ 0.0432 µM) | 0.16 (≈ 0.177 µM) |  | 
11 | Cc1cc(-c2ccc(C(F)(F)F)cc2)ccc1C(=O)N[C@@H](CCN)C(=O)N(C)[C@@H]1C(=O)N[C@@H](C)C(=O)N[C@H](C(=O)NCC#N)Cc2ccc(OCCN)c(c2)-c2cc1ccc2OCCN [Compound 143] | 0.018 (≈ 0.02 µM) | 0.57 | 0.047 (≈ 0.0522 µM) | 0.44 (≈ 0.489 µM) |  | 
12 | Cc1cc(-c2ccc(-c3ccccc3)cc2)ccc1C(=O)N[C@@H](CCN)C(=O)N(C)[C@@H]1C(=O)N[C@@H](C)C(=O)N[C@H](C(=O)NCC#N)Cc2ccc(OCCN)c(c2)-c2cc1ccc2OCCN [Compound 144] | 0.053 (≈ 0.0584 µM) | 0.91 | 0.031 (≈ 0.0341 µM) | 0.16 (≈ 0.176 µM) |  | 
13 | Cc1cc(-c2ccc(C(C)C)cc2)ccc1C(=O)N[C@@H](CCN)C(=O)N(C)[C@@H]1C(=O)N[C@@H](C)C(=O)N[C@H](C(=O)NCC#N)Cc2ccc(OCCN)c(c2)-c2cc1ccc2OCCN [Compound 145] | 0.012 (≈ 0.0137 µM) | 0.59 | 0.047 (≈ 0.0538 µM) | 0.16 (≈ 0.183 µM) |  | 
14 | Cc1cc(-c2ccc(CC(C)C)cc2)ccc1C(=O)N[C@@H](CCN)C(=O)N(C)[C@@H]1C(=O)N[C@@H](C)C(=O)N[C@H](C(=O)NCC#N)Cc2ccc(OCCN)c(c2)-c2cc1ccc2OCCN [Compound 146] | 0.0078 (≈ 0.00878 µM) | 0.9 | 0.047 (≈ 0.0529 µM) | < 0.063 |  | 
15 | C[C@@H]1NC(=O)[C@@H](N(C)C(=O)[C@H](CCN)NC(=O)c2ccc(-c3ccc(Cl)cc3)cc2)c2ccc(OCCN)c(c2)-c2cc(ccc2OCCN)C[C@@H](C(=O)NCC#N)NC1=O [Compound 147] | 0.023 (≈ 0.027 µM) | 0.69 |  |  | 0.094 (≈ 0.11 µM) | 1.5 (≈ 1.76 µM)
16 | Cc1cc(-c2ccc(Cl)cc2)ccc1C(=O)N[C@@H](CCN)C(=O)N(C)[C@@H]1C(=O)N[C@@H](C)C(=O)N[C@H](C(=O)NCC#N)Cc2ccc(OCCN)c(c2)-c2cc1ccc2OCCN [Compound 148] | 0.0098 (≈ 0.0113 µM) | 0.75 | 0.055 (≈ 0.0635 µM) | 0.88 (≈ 1.02 µM) |  | 
17 | Cc1cc(-c2ccccc2)ccc1C(=O)N[C@@H](CCN)C(=O)N(C)[C@@H]1C(=O)N[C@@H](C)C(=O)N[C@H](C(=O)NCC#N)Cc2ccc(OCCN)c(c2)-c2cc1ccc2OCCN [Compound 149] | 0.023 (≈ 0.0276 µM) | 0.8 | 0.19 (≈ 0.228 µM) | 3 (≈ 3.61 µM) |  | 
18 | Cc1cc(-c2ccccc2)ccc1C(=O)N[C@@H](CCCN)C(=O)N(C)[C@@H]1C(=O)N[C@@H](C)C(=O)N[C@H](C(=O)NCC#N)Cc2ccc(OCCN)c(c2)-c2cc1ccc2OCCN [Compound 150] | 0.063 (≈ 0.0745 µM) | 0.82 | 0.25 (≈ 0.296 µM) | 4 (≈ 4.73 µM) |  | 
19 | CCc1ccc(-c2ccc(C(=O)N[C@@H](CCN)C(=O)N(C)[C@@H]3C(=O)N[C@@H](C)C(=O)N[C@H](C(=O)NCC#N)Cc4ccc(OCCN)c(c4)-c4cc3ccc4OCCN)c(C)c2)cc1 [Compound 151] | 0.012 (≈ 0.014 µM) | 0.59 | 0.031 (≈ 0.036 µM) | 0.31 (≈ 0.36 µM) |  | 
20 | CCc1ccc(-c2ncc(C(=O)N[C@@H](CCN)C(=O)N(C)[C@@H]3C(=O)N[C@@H](C)C(=O)N[C@H](C(=O)NCC#N)Cc4ccc(OCCN)c(c4)-c4cc3ccc4OCCN)c(C)n2)cc1 [Compound 155] | 0.0098 (≈ 0.0114 µM) | 2.5 | 0.13 (≈ 0.151 µM) | 0.44 (≈ 0.51 µM) |  | 
21 | Cc1nc(-c2ccc(CC(C)C)cc2)ncc1C(=O)N[C@@H](CCN)C(=O)N(C)[C@@H]1C(=O)N[C@@H](C)C(=O)N[C@H](C(=O)NCC#N)Cc2ccc(OCCN)c(c2)-c2cc1ccc2OCCN [Compound 157] | 0.0034 (≈ 0.00382 µM) | 0.79 | 0.023 (≈ 0.0258 µM) | 0.098 (≈ 0.11 µM) |  | 

Reference: patent publication US20180327367A1, “MACROCYCLIC BROAD SPECTRUM ANTIBIOTICS” (priority 2015, published 2018)
